The values that follow come from patent publication US10827695B2, “Process for in vitro flowering in Crocus sativus L” (Council of Scientific & Industrial Research, priority 2015, dated 2020).

The assay relates to saffron crocus (Crocus sativus L.) corm explants. Put plainly: in-vitro induction of flowering / proliferation of floral primordia in corm explants on MS medium with PGR. It is filed as cell-based. How it is done:
Accordingly, the incubation is carried out at a temperature in the range of 9° C. to 30° C. preferably at a temperature in the range of 9° C. to 21° C., with RH (relative humidity) in the range of 50 to 90%, and photoperiod of about 16 hours provided by 1/2/4 cool fluorescent tubes (Philips, 40 W), giving about 11.7 ? mol m−^2 s^−1 PPF (Photosynthetic Photon Flux) i.e. ˜866 lux (illuminance) each followed by 8-h dark period. The cultures are maintained for 4-5 weeks in the medium at above incubation conditions during which 80% of the culture remain sterile and show sprouting. They are then transferred to fresh MS medium of same composition and incubated under sterile conditions for about 1 to 2 weeks till the sprouted buds are about 8 cm long. The sprouted buds are slit vertically and incubated in MS medium of same composition for another 2 to 3 weeks under the same conditions. This helps the bud to open and grow further (FIG. 1 & FIG. 2).
Corms weighing ˜10 gm were used for the experiments. Explants were prepared by trimming the sides and base of the corms and making small cubes of about 1 cm^3 containing the dormant or slightly sprouted apical buds on 22 Oct. 2014.
These explants were surface sterilized by washing them with neutral Detergent Labolene for 10 min followed by washing with 15% Savlon for 10 minutes. Further, these explants were treated with 1% Bavistin (BASF) for 30 minutes followed by 5 min followed by 0.08% mercuric chloride treatment in a sterile work station (Laminar Air Flow cabinet). After each treatment the explants were washed with sterile distilled water.
Murashige and Skoog Medium supplemented with 6 benzyl amino purine (BAP) (1.0 mg/l) was used for culture. The media made in distilled water was further constituted with 3% sucrose and 0.6% agar. The final pH was adjusted at 5.7. The media was autoclaved at 121° C. at 15 lbs pressure for 20 minutes.
The cultures were maintained for 5 weeks in the medium at 25±2° C., light intensity 16-h light (at 11.7 ? mol m^−2s^−1) followed by 8-h dark period.
The sterile sprouted buds of 5-7 cms length were transferred to fresh medium of same composition after making a vertical slit on the sprouting bud. It helps the bud to open and grow further.
They were again incubated for 3 weeks under the same incubation conditions.
Corms weighing ˜10 gm were used for the experiments. Explants were prepared by trimming the sides and base of the corms and making small cubes of about 1 cm^3 containing the dormant or slightly sprouted apical buds on 22 Oct. 2014. One part of such samples was used for this set-up, while other was reserved for set ^-up of Example 3.
The explants were surface sterilized by passing it through Detergent Labolene for 10 min followed by washing with 15% Savlon for 10 minutes. Further, the cubed explants were treated with 1% Bavistin (BASF) for 30 minutes followed by 5 min 0.08% mercuric chloride treatment in a sterile work station (Laminar Air Flow cabinet). After each treatment the explants were washed with sterile distilled water.
The cultures were maintained for 5 weeks in the medium at 25±2° C. Light intensity 16-h light (at 11.7 ? mol m^−2 s^−1) followed by 8-h dark period.
The sterile sprouted buds of 5-7 cm length were transferred to fresh medium of same composition after making a vertical slit on the sprouting bud.
The explants were surface sterilized by treating them with neutral detergent Labolene for 15 min followed by washing with 20% Savlon for 5 minutes. […]

Take `c1ccc(CNc2ncnc3nc[nH]c23)cc1` [BAP, 6-benzylaminopurine]: the flowering in cultures entry (Example 1, MS medium with 1.0 mg/l, explants prepared 22 Oct. 2014, observed by Nov. 5, 2014 (natural flowering season)) is listed as “Flowering was observed”. Besides, the “flowering in cultures maintained on fresh medium” value (Example 2, MS medium with 1.0 mg/l, until May 2015) is listed as “flowering was observed”. For the same compound, where the note is “Example 2, MS medium with 1.0 mg/l, until late December 2014 (beyond natural flowering period)”, the “initiation of flowering in culture” value is listed as “Initiation of flowering was observed”.
With `O=C(Nc1ccccc1)Nc1cnns1` [TDZ, thidiazuron], the flowering in cultures entry (Example 3, MS medium with 0.01, 0.05 and 0.1 mg/l, by last week of December 2014) is given as “Flowering was observed”. Under “Example 3, MS medium with 0.01, 0.05 and 0.1 mg/l, till May 2015”, the “flowering in cultures maintained on fresh medium” value was “flowering was observed”.
